# Assay results taken from patent US4975449A, “Topical treatment of glaucoma with 2-benzothiazolesulfonamide derivative” (University of Iowa Research Foundation, priority 1983, dated 1990).
# Where “and” joins values, the source holds several entries; their conditions need not be identical. Identical values can stand only once. Entries after “also recorded” stand apart in the source; their conditions may differ.
# Experiments:
# [1] = tested on: rabbit eyes (intraocular pressure); experiment: Rabbit Eye Tests (In-Vivo IOP Determinations), Water Loading Model; design: species or system New Zealand albino rabbits; settings: for drop in IOP (right eye) compared to no drug control: 6-ethoxy-N-methyl: at 90 and 120 minutes, 6-chloro: 15 through 90 minutes, ethoxzolamide: any time point
# Description: New Zealand albino rabbits either sex and weighing 1.9-2.4kg were used. Control IOP measurements were made by applanation tonometry (Alcon Applanation Pneumatonograph®) prior to water loading and drug administration. The rabbits were first anesthelized and then water loaded using 100 ml/kg (sterile water for injection). The water dose was given intraperitoneally over 15-20 minutes Four test formulations were administered topically to the right eye of each rabbit immediately following water loading. The vehicle was administered to the left eye of each rabbit. The test formulations contained 1% suspensions of ethoxzolamide, and the other indicated compounds, and a vehicle (coded E). The vehicle contained a pH 7.2 phosphate buffer and 0.05% polysorbate 80 (Tween-80®). IOP measurement were made in right and left eyes at 15, 30, […], 60, 90, 120 and 180 minutes after topical administration.
# [2] = tested on: rabbit eyes (intraocular pressure); experiment: Salted Rabbit Test (IOP in rabbits fed a sodium enriched diet); assay type: in vivo, adult white rabbits; settings: for IOP change, (IOPDET - IOPCET) - (IOPDEO - IOPCEO) / Difference in IOP between both eyes just prior to dosing (IOPDEO - IOPCEO): individual rabbit; for IOP change, (IOPDET - IOPCET) - (IOPDEO - IOPCEO): 1% w/v suspension topical; for Difference in IOP between both eyes just prior to dosing (IOPDEO - IOPCEO): t = 0, pre-dose; for Effectiveness in lowering IOP, comparison (in words): the two rabbit models of Examples 10 and 11
# Description: The treated eye was selected randomly, whereas, the fellow eye received placebo; the observer was masked.
# In particular, a 1% w/v suspension of 6-chloro-2-benzothiazolesulfonamide analog was prepared in a standard vehicle consisting of aqueous pH 7.8 phosphate buffer, 0.05% w/v tween 80, and sufficient NaC1 to make the preparation isotonic. One drop, followed by two drops each at one minute intervals, was applied to one eye of normal adult white rabbits. Fifteen rabbits were used in the experiment. The treated eye was selected randomly, whereas, the fellow eye received placebo. The observer was masked. The intraocular pressure (IOP) was measured with an Alcon […] pneumotonometer. A drop of local anesthetic was applied just prior to making the measurement. The IOP was measured in both rabbit eyes at 0, 30, 60, 90 and 120 minutes following instillation of the new antiglaucoma agent.
# [3] = tested on: rabbit eyes (intraocular pressure); experiment: as above; assay type: in vivo, adult white rabbits; settings: for Lowering of IOP (in words): 6-chloro: 30, 60 and 120 minutes, ethoxzolamide: any time point after dosing; for Average IOP change: 1% w/v suspension topical; for Average difference in IOP between both eyes just prior to dosing: t = 0, pre-dose; for Statistical significance of IOP change: N.S. = non-significant
# [4] = 15 min after topical administration, 1% suspension, 50 ul q 2 min × 6, right eye
# [5] = 30 min after topical administration, 1% suspension, 50 ul q 2 min × 6, right eye
# [6] = 60 min after topical administration, 1% suspension, 50 ul q 2 min × 6, right eye
# [7] = 90 min after topical administration, 1% suspension, 50 ul q 2 min × 6, right eye
# [8] = 120 min after topical administration, 1% suspension, 50 ul q 2 min × 6, right eye
# [9] = 180 min after topical administration, 1% suspension, 50 ul q 2 min × 6, right eye
# [10] = time 0 min, baseline, 1% suspension topical to right eye
Compound,drop in IOP (right eye) compared to no drug control [1],"IOP, right eye (R) [1, 4] [mmHg]","IOP, right eye (R) [1, 5] [mmHg]","IOP, right eye (R) [1, 6] [mmHg]","IOP, right eye (R) [1, 7] [mmHg]","IOP, right eye (R) [1, 8] [mmHg]","IOP, right eye (R) [1, 9] [mmHg]","IOP, right eye (R) [1, 10] [mmHg]",Paired t value of IOP change ([2]; 60 min),Paired t value of IOP change ([2]; 120 min),"IOP change, (IOPDET - IOPCET) - (IOPDEO - IOPCEO) ([2]; 30 min)","IOP change, (IOPDET - IOPCET) - (IOPDEO - IOPCEO) ([2]; 60 min)","IOP change, (IOPDET - IOPCET) - (IOPDEO - IOPCEO) ([2]; 90 min)","IOP change, (IOPDET - IOPCET) - (IOPDEO - IOPCEO) ([2]; 120 min)",Difference in IOP between both eyes just prior to dosing (IOPDEO - IOPCEO) [2],"Effectiveness in lowering IOP, comparison (in words) [2]",Lowering of IOP (in words) [3],Paired t value of IOP change ([3]; 30 min),Paired t value of IOP change ([3]; 90 min),Average IOP change ([3]; 30 min),other results
"NS(=O)(=O)c1nc2ccc(Cl)cc2s1 [6-Chloro benzothiazole-2-sulfonamide, 6-Chloro-2-benzothiazolesulfonamide]",significant drop,19.72,20.00,21.39,19.11,18.78,17.8,14.33,-2.106,-2.11,-3 mm Hg and -5 mm Hg and +1 mm Hg and 0 mm Hg and -4 mm Hg and -1 mm Hg and -2 mm Hg and +2 mm Hg,-2 mm Hg and -4 mm Hg and +1 mm Hg and -3 mm Hg and +2 mm Hg and -1 mm Hg and +3 mm Hg,-1 mm Hg and -2 mm Hg and +1 mm Hg and -3 mm Hg and +2 mm Hg and 0 mm Hg and +3 mm Hg,-2 mm Hg and -4 mm Hg and +3 mm Hg and -1 mm Hg and -5 mm Hg and 0 mm Hg and -6 mm Hg and +1 mm Hg,+1 mm Hg and +2 mm Hg and 0 mm Hg and +3 mm Hg and -2 mm Hg and -1 mm Hg and -3 mm Hg,pharmacologically active (lowered IOP),small but significant reduction of intraocular pressure; also recorded: statistically significant,-1.834,-1.63,-0.93 mm Hg,"Effectiveness (in words) ([1]; water loading model, topical): proved effective; Probability (1.t.) of IOP change ([3]; 30 min): 0.05; Probability (1.t.) of IOP change ([3]; 60 min): 0.025; Probability (1.t.) of IOP change ([3]; 90 min): 0.1; Probability (1.t.) of IOP change ([3]; 120 min): 0.025; Average IOP change ([3]; 60 min): -1.27 mm Hg; Average IOP change ([3]; 90 min): -0.87 mm Hg; Average IOP change ([3]; 120 min): -1.47 mm Hg; Average difference in IOP between both eyes just prior to dosing [3]: +0.27 mm Hg"
CCOc1ccc2nc(S(=O)(=O)NC)sc2c1 [6-Ethoxy-N-methyl-2-benzothiazolesulfonamide],significant drop,19.10,19.90,20.33,18.57,17.24,17.00,14.10,,,,,,,,,,,,,
"CCOc1ccc2nc(S(N)(=O)=O)sc2c1 [Ethoxzolamide, reference compound]",no effect,21.07,21.60,21.33,20.33,18.80,16.4,14.94,0.40,0.50,+1 mm Hg and +2 mm Hg and -2 mm Hg and -3 mm Hg and 0 mm Hg,+3 mm Hg and -2 mm Hg and +2 mm Hg and +1 mm Hg and 0 mm Hg,+1 mm Hg and 0 mm Hg and +2 mm Hg and -2 mm Hg and -3 mm Hg,0 mm Hg and -1 mm Hg and +2 mm Hg,+4 mm Hg and +1 mm Hg and -1 mm Hg and 0 mm Hg,no effectiveness,No lowering of IOP could be detected,1.27,0.73,-.17 mm Hg,Statistical significance of IOP change ([3]; 30 min): N.S.; Statistical significance of IOP change ([3]; 60 min): N.S.; Statistical significance of IOP change ([3]; 90 min): N.S.; Statistical significance of IOP change ([3]; 120 min): N.S.; Average IOP change ([3]; 60 min): +.33 mm Hg; Average IOP change ([3]; 90 min): -0 mm Hg; Average IOP change ([3]; 120 min): +.17 mm Hg; Average difference in IOP between both eyes just prior to dosing [3]: +.67 mm Hg
